The record followed here is ChEMBL document CHEMBL1201862, “PubChem BioAssay data set” (2004).

Active and inactive are the calls of the source. Bounds are passed on as bounds.

Assay [1] addresses T1, Histone-lysine N-methyltransferase NSD2 (Homo sapiens, UniProt O96028).
T1 sequence (O96028 whole entry): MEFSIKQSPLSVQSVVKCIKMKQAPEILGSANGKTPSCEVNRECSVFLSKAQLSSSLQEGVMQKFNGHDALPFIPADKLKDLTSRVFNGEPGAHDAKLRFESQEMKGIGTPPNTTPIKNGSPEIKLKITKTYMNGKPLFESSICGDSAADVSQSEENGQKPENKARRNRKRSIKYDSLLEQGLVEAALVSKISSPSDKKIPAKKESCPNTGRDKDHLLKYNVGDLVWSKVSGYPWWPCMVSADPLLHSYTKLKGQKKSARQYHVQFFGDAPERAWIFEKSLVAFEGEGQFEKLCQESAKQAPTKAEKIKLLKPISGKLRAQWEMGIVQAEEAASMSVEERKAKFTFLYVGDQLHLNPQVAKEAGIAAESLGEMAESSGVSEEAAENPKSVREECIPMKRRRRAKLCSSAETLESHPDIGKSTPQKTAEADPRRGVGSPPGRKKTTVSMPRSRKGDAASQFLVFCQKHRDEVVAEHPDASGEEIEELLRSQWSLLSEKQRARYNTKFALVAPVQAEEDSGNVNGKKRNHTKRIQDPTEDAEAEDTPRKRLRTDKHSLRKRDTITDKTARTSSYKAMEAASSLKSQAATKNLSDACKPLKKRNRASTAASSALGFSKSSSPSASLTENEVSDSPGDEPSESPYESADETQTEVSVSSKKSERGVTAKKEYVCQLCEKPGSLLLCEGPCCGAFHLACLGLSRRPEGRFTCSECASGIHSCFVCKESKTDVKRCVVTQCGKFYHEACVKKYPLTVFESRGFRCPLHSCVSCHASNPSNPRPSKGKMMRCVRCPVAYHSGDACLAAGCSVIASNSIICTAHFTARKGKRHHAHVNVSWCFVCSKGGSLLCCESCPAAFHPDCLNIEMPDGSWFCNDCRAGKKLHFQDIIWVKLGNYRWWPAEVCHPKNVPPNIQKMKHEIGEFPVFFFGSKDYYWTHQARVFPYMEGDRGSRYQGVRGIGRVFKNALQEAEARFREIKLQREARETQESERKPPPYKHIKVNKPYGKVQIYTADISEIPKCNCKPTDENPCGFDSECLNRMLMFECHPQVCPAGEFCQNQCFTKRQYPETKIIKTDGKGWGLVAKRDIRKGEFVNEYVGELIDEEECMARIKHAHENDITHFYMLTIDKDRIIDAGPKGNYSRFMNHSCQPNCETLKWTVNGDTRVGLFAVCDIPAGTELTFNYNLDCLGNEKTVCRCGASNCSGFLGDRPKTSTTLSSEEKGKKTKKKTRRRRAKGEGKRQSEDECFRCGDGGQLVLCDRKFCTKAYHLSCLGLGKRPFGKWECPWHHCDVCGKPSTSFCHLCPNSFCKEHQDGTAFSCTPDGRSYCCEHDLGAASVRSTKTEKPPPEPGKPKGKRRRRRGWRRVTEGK
Type of assay: biochemical.

Assay [2] has as its target Ribosomal protein S6 kinase alpha-3 (Homo sapiens, UniProt P51812). In kind it is functional.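 Note: measured within a kinome-wide profiling panel.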
Assay [3] addresses Phosphorylase b kinase gamma catalytic chain, liver/testis isoform (Homo sapiens, UniProt P15735). Type of assay: functional.
Assay [4] deals with RAC-gamma serine/threonine-protein kinase (Homo sapiens, UniProt Q9Y243). In kind it is functional.
Chain of RAC-gamma serine/threonine-protein kinase (Q9Y243 whole entry): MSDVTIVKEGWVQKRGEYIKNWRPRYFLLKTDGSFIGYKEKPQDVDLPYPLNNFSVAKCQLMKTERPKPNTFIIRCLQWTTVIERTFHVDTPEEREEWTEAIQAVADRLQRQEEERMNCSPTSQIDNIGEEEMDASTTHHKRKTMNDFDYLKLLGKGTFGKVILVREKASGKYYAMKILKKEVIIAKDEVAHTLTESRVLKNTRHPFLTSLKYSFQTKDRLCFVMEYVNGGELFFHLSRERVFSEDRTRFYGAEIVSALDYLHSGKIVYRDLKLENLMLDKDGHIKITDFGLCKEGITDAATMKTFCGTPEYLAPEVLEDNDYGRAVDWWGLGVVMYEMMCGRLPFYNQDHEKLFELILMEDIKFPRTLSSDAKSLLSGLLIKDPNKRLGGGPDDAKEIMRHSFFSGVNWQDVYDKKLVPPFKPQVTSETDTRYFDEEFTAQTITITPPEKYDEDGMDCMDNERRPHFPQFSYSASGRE
For assay [5], the target named is 5'-AMP-activated protein kinase catalytic subunit alpha-1 (Homo sapiens, UniProt Q13131). In kind it is functional.
Chain of 5'-AMP-activated protein kinase catalytic subunit alpha-1 (Q13131 whole entry): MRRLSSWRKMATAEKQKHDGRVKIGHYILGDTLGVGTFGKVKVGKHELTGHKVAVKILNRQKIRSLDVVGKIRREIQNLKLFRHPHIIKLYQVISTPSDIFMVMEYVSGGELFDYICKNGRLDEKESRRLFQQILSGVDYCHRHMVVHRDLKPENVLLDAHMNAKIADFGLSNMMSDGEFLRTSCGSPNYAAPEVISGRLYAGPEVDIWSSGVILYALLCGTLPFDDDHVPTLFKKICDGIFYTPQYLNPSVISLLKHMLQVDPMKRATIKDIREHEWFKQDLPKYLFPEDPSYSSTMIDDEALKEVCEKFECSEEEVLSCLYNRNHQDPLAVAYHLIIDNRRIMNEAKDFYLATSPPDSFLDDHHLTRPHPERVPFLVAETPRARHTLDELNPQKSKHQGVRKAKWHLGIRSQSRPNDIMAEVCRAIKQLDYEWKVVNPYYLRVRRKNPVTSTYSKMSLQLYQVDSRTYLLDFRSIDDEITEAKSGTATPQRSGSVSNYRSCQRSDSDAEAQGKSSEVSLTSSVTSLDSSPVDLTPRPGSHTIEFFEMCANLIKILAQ
The target in assay [6] is Serine/threonine-protein kinase PLK4 (Homo sapiens, UniProt O00444). Type of assay: functional.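 Note: PLK4 measured as one member of a kinome-wide kinase profiling panel.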
Assay [7] concerns the target Serine/threonine-protein kinase D2 (Homo sapiens, UniProt Q9BZL6). Type of assay: functional.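 Note: measured against PRKD2 as one member of a kinome-wide kinase profiling panel.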
Assay [8] deals with Tyrosine-protein kinase SYK (Homo sapiens, UniProt P43405). Type of assay: functional.
In assay [9] the target is Serine/threonine-protein kinase D3 (Homo sapiens, UniProt O94806). Type of assay: functional.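 Note: determined within a kinase panel screen, with PRKCN as the panel member.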
For assay [10], the target named is Serine/threonine-protein kinase 17A (Homo sapiens, UniProt Q9UEE5). Type of assay: functional.
Chain of Serine/threonine-protein kinase 17A (Q9UEE5 whole entry): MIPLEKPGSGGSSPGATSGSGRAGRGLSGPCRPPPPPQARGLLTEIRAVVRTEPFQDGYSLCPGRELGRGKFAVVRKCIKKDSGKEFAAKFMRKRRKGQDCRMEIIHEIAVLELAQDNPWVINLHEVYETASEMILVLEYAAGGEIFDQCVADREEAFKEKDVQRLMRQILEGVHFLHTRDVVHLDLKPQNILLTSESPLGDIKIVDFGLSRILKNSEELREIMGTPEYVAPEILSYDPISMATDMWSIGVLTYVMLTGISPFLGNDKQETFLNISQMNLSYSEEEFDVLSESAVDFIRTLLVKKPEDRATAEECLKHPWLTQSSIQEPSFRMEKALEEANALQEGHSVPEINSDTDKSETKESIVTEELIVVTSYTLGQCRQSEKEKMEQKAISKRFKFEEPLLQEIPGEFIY
In assay [11] the target is Cyclin-dependent kinase 2 (Homo sapiens, UniProt P24941). In kind it is functional.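 Note: CDK2 measured as one member of a broad kinome profiling panel.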
Assay [12] concerns the target Serine/threonine-protein kinase PAK 1 (Homo sapiens, UniProt Q13153). Type of assay: functional.
Assay [13] addresses Casein kinase I isoform gamma-1 (Homo sapiens, UniProt Q9HCP0). Type of assay: functional.
The target of assay [14] is Tyrosine-protein kinase Lyn (Homo sapiens, UniProt P07948). In kind it is functional.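 Note: lyn as one member of a kinase panel.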
Chain of Tyrosine-protein kinase Lyn (P07948 whole entry): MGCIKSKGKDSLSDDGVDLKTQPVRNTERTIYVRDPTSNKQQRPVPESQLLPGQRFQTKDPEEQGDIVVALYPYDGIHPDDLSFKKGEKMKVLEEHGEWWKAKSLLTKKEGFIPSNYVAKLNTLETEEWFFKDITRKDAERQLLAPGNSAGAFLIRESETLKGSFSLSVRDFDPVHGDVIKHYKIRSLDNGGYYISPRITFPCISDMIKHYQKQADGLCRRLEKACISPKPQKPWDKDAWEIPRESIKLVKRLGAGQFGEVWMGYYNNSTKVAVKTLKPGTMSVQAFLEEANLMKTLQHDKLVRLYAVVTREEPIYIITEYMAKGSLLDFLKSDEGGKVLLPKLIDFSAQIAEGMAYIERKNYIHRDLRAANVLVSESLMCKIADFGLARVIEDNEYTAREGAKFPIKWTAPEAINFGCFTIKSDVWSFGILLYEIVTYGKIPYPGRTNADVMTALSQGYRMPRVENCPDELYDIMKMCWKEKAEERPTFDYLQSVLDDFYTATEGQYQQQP
The target of assay [15] is Mitogen-activated protein kinase 9 (Homo sapiens, UniProt P45984). Type of assay: functional.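 Note: value from a kinome panel profiling assay, MAPK9 panel entry.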
For assay [16], the target named is MAP/microtubule affinity-regulating kinase 3 (Homo sapiens, UniProt P27448). Type of assay: functional.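 Note: MARK3 affinity measured as one member of a kinome panel.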
In assay [17] the target is Serine/threonine-protein kinase pim-3 (Homo sapiens, UniProt Q86V86). In kind it is functional.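 Note: value obtained as one member of a broad kinase panel profiling effort.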
For assay [18], the target named is Tyrosine-protein kinase Srms (Homo sapiens, UniProt Q9H3Y6). In kind it is functional.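 Note: SRMS measured as one member of a kinome-wide kinase profiling panel.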
Chain of Tyrosine-protein kinase Srms (Q9H3Y6 whole entry): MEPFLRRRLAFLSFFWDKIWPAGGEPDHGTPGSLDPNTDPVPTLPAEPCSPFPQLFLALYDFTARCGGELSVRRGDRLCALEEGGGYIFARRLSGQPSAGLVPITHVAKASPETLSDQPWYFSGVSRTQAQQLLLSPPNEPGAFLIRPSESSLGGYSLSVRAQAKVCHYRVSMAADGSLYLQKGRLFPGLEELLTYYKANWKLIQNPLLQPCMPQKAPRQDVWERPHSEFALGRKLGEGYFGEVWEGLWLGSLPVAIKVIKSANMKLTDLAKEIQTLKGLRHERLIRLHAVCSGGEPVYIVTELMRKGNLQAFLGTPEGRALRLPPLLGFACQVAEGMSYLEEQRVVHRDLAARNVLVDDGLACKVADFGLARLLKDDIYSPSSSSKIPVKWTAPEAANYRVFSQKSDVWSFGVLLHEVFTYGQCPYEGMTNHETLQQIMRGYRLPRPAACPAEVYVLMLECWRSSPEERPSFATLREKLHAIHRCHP
Assay [19] has as its target Cyclin-dependent kinase 5 (Homo sapiens, UniProt Q00535). In kind it is functional.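 Note: CDK5 measured as one member of a kinase profiling panel.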
Assay [20] addresses Mitogen-activated protein kinase 1 (Homo sapiens, UniProt P28482). Type of assay: functional.
Assay [21] deals with Dual specificity tyrosine-phosphorylation-regulated kinase 4 (Homo sapiens, UniProt Q9NR20). In kind it is functional.
Assay [22] addresses Vascular endothelial growth factor receptor 3 (Homo sapiens, UniProt P35916). In kind it is functional.
Assay [23] concerns the target Calcium/calmodulin-dependent protein kinase type 1 (Homo sapiens, UniProt Q14012). Type of assay: functional.
The target of assay [24] is 3-phosphoinositide-dependent protein kinase 1 (Homo sapiens, UniProt O15530). In kind it is functional.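 Note: value comes from the Navigating the Kinome panel, PDPK1 member.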
Assay [25] concerns the target Fibroblast growth factor receptor 3 (Homo sapiens, UniProt P22607). Type of assay: functional.
The target of assay [26] is Macrophage colony-stimulating factor 1 receptor (Homo sapiens, UniProt P07333). In kind it is functional.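 Note: value comes from the Navigating the Kinome screening panel, CSF1R member.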
Assay [27] has as its target Serine/threonine-protein kinase BRSK1 (Homo sapiens, UniProt Q8TDC3). In kind it is functional.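 Note: measured within a kinome-wide kinase panel, with the target listed as KIAA1811.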
The target in assay [28] is Tyrosine-protein kinase FRK (Homo sapiens, UniProt P42685). Type of assay: functional.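 Note: FRK tested as one member of a kinome panel.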
Chain of Tyrosine-protein kinase FRK (P42685 whole entry): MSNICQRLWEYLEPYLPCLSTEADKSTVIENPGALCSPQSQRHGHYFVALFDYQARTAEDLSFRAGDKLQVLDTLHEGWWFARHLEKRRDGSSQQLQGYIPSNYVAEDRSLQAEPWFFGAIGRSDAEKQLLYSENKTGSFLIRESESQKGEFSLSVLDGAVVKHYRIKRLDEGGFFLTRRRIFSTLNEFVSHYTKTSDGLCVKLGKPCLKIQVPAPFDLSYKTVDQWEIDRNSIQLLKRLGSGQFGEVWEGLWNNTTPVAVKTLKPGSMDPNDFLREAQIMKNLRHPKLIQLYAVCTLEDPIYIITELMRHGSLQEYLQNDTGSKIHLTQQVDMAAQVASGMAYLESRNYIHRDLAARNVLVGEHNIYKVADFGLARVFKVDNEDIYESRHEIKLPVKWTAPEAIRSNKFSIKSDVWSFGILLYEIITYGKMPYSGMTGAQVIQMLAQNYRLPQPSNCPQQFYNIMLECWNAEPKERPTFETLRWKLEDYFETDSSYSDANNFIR

Chain of Serine/threonine-protein kinase BRSK1 (Q8TDC3 whole entry): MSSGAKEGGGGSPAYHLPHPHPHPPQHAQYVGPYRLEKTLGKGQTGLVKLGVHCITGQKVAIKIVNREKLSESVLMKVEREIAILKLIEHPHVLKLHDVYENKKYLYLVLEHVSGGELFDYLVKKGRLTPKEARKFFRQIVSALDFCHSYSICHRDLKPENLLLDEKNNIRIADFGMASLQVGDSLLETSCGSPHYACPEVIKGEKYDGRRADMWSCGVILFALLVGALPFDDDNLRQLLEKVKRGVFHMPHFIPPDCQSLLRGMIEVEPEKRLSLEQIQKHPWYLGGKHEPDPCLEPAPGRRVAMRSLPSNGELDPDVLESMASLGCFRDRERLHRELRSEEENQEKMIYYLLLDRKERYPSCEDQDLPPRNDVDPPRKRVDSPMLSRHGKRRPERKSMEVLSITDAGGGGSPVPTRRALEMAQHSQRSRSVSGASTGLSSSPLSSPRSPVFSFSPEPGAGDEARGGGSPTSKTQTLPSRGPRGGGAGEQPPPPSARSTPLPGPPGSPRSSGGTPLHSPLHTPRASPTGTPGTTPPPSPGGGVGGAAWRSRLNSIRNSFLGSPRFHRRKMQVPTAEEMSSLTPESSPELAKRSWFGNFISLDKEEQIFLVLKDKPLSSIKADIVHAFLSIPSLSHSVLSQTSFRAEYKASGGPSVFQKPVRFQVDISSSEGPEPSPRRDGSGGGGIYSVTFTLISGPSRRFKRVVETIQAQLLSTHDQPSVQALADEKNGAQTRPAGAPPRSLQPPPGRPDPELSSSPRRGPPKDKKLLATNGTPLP
Chain of Calcium/calmodulin-dependent protein kinase type 1 (Q14012 whole entry): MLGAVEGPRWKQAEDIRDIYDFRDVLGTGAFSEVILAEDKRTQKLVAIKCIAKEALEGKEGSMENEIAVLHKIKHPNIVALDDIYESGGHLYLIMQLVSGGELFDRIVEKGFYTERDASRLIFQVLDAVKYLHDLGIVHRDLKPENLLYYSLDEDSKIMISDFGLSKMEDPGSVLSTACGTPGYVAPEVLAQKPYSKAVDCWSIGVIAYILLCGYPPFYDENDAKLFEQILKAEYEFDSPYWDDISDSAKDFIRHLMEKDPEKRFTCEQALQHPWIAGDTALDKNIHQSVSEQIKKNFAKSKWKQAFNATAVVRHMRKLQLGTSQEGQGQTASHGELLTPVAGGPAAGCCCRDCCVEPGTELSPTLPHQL
Chain of Cyclin-dependent kinase 5 (Q00535 whole entry): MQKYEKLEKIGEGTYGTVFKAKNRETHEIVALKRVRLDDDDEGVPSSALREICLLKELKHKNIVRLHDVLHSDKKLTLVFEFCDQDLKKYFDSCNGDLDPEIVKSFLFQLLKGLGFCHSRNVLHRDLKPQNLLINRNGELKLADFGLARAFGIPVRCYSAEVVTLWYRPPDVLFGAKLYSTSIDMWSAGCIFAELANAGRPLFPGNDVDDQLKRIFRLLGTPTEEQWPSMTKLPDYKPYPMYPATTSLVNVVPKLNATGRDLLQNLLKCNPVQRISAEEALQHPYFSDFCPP

Take `CCc1ccc(S(=O)(=O)/N=C2\C=C(NS(=O)(=O)c3ccccc3)C(=O)c3ccccc32)cc1`: in assay [1], the half-maximal activity concentration (AC50) (usually the concentration at which the activity in the assay is half-maximal) is 5.4 µM (active).
`Cn1cncc1C(OCc1c(-c2ccc(OC(F)(F)F)cc2)cc(C#N)c(=O)n1C)c1ccc(C#N)cc1` (stereo not drawn): the Ki – broadly, the equilibrium dissociation constant of an inhibitor or competing ligand from its target – in assay [2] is > 7.94 µM (inactive); in assay [3], > 5.01 µM (inactive); in assay [4] it was > 10 µM (inactive); in assay [5], > 1.58 µM (inactive); in [6], > 3.98 µM (inactive); in assay [7], > 10 µM (inactive). Also, the Ki is > 1.58 µM (inactive) in assay [8]; > 10 µM (inactive) in [9]; > 3.98 µM (inactive) in assay [10]; > 7.94 µM (inactive) in [11]; > 10 µM (inactive) in assay [12]; > 6.31 µM (inactive) in assay [13]. Moreover, the inhibition constant Ki in assay [14] was 0.316 µM (active); in assay [15] it was > 3.98 µM (inactive); in assay [16] it was 0.794 µM (active); in assay [17], > 7.94 µM (inactive); in assay [18] it was > 1.58 µM (inactive); in [19], > 10 µM (inactive). Also, the Ki was > 7.94 µM (inactive) in assay [20]; > 7.94 µM (inactive) in assay [21]; > 6.31 µM (inactive) in assay [22]; > 5.01 µM (inactive) in assay [23]; > 3.98 µM (inactive) in assay [24]; > 2 µM (inactive) in assay [25]. Besides, the results for the Ki in assay [26], in assay [27] and in assay [28] were > 2.51 µM (inactive), > 10 µM (inactive) and > 2.51 µM (inactive), respectively.
